Laboratory results taken from patent US9346815B2, “5-chloro-2-difluoromethoxyphenyl pyrazolopyrimidine compounds, compositions and methods of use thereof” (Genentech, Inc., priority 2014, dated 2016).
pKi: −log10 of the molar value.

How the values were obtained:
[1] = molecular target: isolated recombinant JAK1 kinase domain (Homo sapiens (Human), UniProt P23458); assay: JAK1 enzyme assay (Caliper LabChip, peptide phosphorylation); assay type: biochemical; details: isolated recombinant JAK1 kinase domain, 25 μM ATP
[2] = molecular target: isolated recombinant JAK2 kinase domain (Homo sapiens (Human), UniProt O60674); assay: JAK2 enzyme assay (Caliper LabChip, peptide phosphorylation); assay type: biochemical; details: 25 μM ATP
isolated recombinant JAK2 kinase domain, sequence (O60674 849-1124): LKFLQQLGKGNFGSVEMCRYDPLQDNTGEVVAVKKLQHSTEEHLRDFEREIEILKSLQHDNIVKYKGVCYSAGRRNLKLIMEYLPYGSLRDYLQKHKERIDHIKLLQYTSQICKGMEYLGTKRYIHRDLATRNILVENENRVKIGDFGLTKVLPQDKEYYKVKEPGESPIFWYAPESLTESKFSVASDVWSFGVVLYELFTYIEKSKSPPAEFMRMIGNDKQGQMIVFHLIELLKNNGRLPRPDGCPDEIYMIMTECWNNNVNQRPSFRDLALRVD

isolated recombinant JAK1 kinase domain, sequence (P23458 875-1153): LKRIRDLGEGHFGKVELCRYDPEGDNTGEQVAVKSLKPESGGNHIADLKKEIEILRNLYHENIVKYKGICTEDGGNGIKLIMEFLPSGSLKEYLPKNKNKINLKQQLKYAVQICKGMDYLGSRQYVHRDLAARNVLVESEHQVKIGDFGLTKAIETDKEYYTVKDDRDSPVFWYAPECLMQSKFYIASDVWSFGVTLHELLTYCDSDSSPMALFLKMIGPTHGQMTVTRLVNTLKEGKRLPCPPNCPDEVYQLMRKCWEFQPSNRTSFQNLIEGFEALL

SMILES | pKi [1] | pKi [2]
O=C(Nc1cn(CC(=O)N2CCN3CCCCC3C2)nc1-c1cc(Cl)ccc1OC(F)F)c1cnn2cccnc12 (stereo not shown) [Example 241, N-[1-[2-(1,3,4,6,7,8,9,9a-octahydropyrido[1,2-a]pyrazin-2-yl)-2-oxo-ethyl]-3-[5-chloro-2-(difluoromethoxy)phenyl]pyrazol-4-yl]pyrazolo[1,5-a]pyrimidine-3-carboxamide] | 9.06 | 8.90
CN1[C@@H]2CC[C@H]1CN(C(=O)Cn1cc(NC(=O)c3cnn4cccnc34)c(-c3cc(Cl)ccc3OC(F)F)n1)C2 [Example 242, N-[3-[5-chloro-2-(difluoromethoxy)phenyl]-l-[2-[(1S,5R)-8-methyl-3,8-diazabicyclo[3.2.1]octan-3-yl]-2-oxo-ethyl]pyrazol-4-yl]pyrazolo[1,5-a]pyrimidine-3-carboxamide] | 9.02 | 8.99
COCCN1CCN(C(=O)Cn2cc(NC(=O)c3c(N)nn4cccnc34)c(-c3cc(Cl)ccc3OC(F)F)n2)CC1 [Example 245, 2-amino-N-[3-[5-chloro-2-(difluoromethoxy)phenyl]-1-[2-[4-(2-methoxyethyl)piperazin-1-yl]-2-oxo-ethyl]pyrazol-4-yl]pyrazolo[1,5-a]pyrimidine-3-carboxamide] | 9.46 | 9.66
CN(CCc1ccccc1)Cc1nc(-c2cc(Cl)ccc2OC(F)F)c(NC(=O)c2cnn3cccnc23)s1 [Example 261, N-[4-[5-chloro-2-(difluoromethoxy)phenyl]-2-[[methyl(2-phenylethyl)amino]methyl]thiazol-5-yl]pyrazolo[1,5-a]pyrimidine-3-carboxamide] | 7.75 | 7.99
CC1(O)CCN(C(=O)Cn2cc(NC(=O)c3cnn4cccnc34)c(-c3cc(Cl)ccc3OC(F)F)n2)C1 (stereo not shown) [Example 269, N-[3-[5-chloro-2-(difluoromethoxy)phenyl]-1-[2-(3-hydroxy-3-methyl-pyrrolidin-1-yl)-2-oxo-ethyl]pyrazol-4-yl]pyrazolo[1,5-a]pyrimidine-3-carboxamide] | 9.48 | 9.08
O=C(Nc1cn(CC(=O)N2CCC(O)(CO)CC2)nc1-c1cc(Cl)ccc1OC(F)F)c1cnn2cccnc12 [Example 272, N-[3-[5-chloro-2-(difluoromethoxy)phenyl]-1-[2-[4-hydroxy-4-(hydroxymethyl)-1-piperidyl]-2-oxo-ethyl]pyrazol-4-yl]pyrazolo[1,5-a]pyrimidine-3-carboxamide] | 9.48 | 9.11
O=C(Nc1cn(CC(=O)N2CCC(OCCO)CC2)nc1-c1cc(Cl)ccc1OC(F)F)c1cnn2cccnc12 [Example 275, N-[3-[5-chloro-2-(difluoromethoxy)phenyl]-1-[2-[4-(2-hydroxyethoxy)-1-piperidyl]-2-oxo-ethyl]pyrazol-4-yl]pyrazolo[1,5-a]pyrimidine-3-carboxamide] | 9.51 | 9.05
O=C(Nc1cn(CC(=O)N2CCC(O)(c3ccncc3)CC2)nc1-c1cc(Cl)ccc1OC(F)F)c1cnn2cccnc12 [Example 276, N-[3-[5-chloro-2-(difluoromethoxy)phenyl]-1-[2-[4-hydroxy-4-(4-pyridyl)-1-piperidyl]-2-oxo-ethyl]pyrazol-4-yl]pyrazolo[1,5-a]pyrimidine-3-carboxamide] | 9.64 | 9.74
Nc1nn2cccnc2c1C(=O)Nc1cn(CC(=O)N2CCC(O)(Cc3ccccc3)CC2)nc1-c1cc(Cl)ccc1OC(F)F [Example 279, 2-amino-N-[1-[2-(4-benzyl-4-hydroxy-1-piperidyl)-2-oxo-ethyl]-3-[5-chloro-2-(difluoromethoxy)phenyl]pyrazol-4-yl]pyrazolo[1,5-a]pyrimidine-3-carboxamide] | 9.41 | 9.66
N#CC1(c2ccccc2)CCN(C(=O)Cn2cc(NC(=O)c3c(N)nn4cccnc34)c(-c3cc(Cl)ccc3OC(F)F)n2)CC1 [Example 283, 2-amino-N-[3-[5-chloro-2-(difluoromethoxy)phenyl]-1-[2-(4-cyano-4-phenyl-1-piperidyl)-2-oxo-ethyl]pyrazol-4-yl]pyrazolo[1,5-a]pyrimidine-3-carboxamide] | 9.26 | 9.54
Nc1nn2cccnc2c1C(=O)Nc1cn(CC(=O)N2CCC(Oc3ccccc3)CC2)nc1-c1cc(Cl)ccc1OC(F)F [Example 285, 2-amino-N-[3-[5-chloro-2-(difluoromethoxy)phenyl]-1-[2-oxo-2-(4-phenoxy-1-piperidyl)ethyl]pyrazol-4-yl]pyrazolo[1,5-a]pyrimidine-3-carboxamide] | 9.21 | 9.33
Nc1nn2cccnc2c1C(=O)Nc1cn(CC(=O)N2CCC(O)(c3ccccc3)CC2)nc1-c1cc(Cl)ccc1OC(F)F [Example 286, 2-amino-N-[3-[5-chloro-2-(difluoromethoxy)phenyl]-1-[2-(4-hydroxy-4-phenyl-1-piperidyl)-2-oxo-ethyl]pyrazol-4-yl]pyrazolo[1,5-a]pyrimidine-3-carboxamide] | 9.27 | 9.59
O=C(Nc1cn(CC(=O)N2CCC(F)(F)C2)nc1-c1cc(Cl)ccc1OC(F)F)c1cnn2cccnc12 [Example 287, N-[3-[5-chloro-2-(difluoromethoxy)phenyl]-1-[2-(3,3-difluoropyrrolidin-1-yl)-2-oxo-ethyl]pyrazol-4-yl]pyrazolo[1,5-a]pyrimidine-3-carboxamide] | 9.46 | 9.19
O=C(Nc1cn(CC(=O)N2CCC(O)(c3ccccc3)CC2)nc1-c1cc(Cl)ccc1OC(F)F)c1cnn2cccnc12 [Example 289, N-[3-[5-chloro-2-(difluoromethoxy)phenyl]-1-[2-(4-hydroxy-4-phenyl-1-piperidyl)-2-oxo-ethyl]pyrazol-4-yl]pyrazolo[1,5-a]pyrimidine-3-carboxamide] | 9.52 | 9.42
CCOC(=O)CN(CCn1cc(NC(=O)c2cnn3cccnc23)c(-c2cc(Cl)ccc2OC(F)F)n1)Cc1cccnc1 [Example 362, ethyl 2-[(2-[3-[5-chloro-2-(difluoromethoxy)phenyl]-4-[pyrazolo[1,5-a]pyrimidine-3-amido]-1H-pyrazol-1-yl]ethyl)(pyridin-3-ylmethyl)amino]acetate] | 8.30 | 8.49

Next, values leading:

pKi [1] | pKi [2] | SMILES
9.31 | 9.44 | CN1CCN(C(=O)Cn2cc(NC(=O)c3c(N)nn4cccnc34)c(-c3cc(Cl)ccc3OC(F)F)n2)CC1 [Example 243, 2-amino-N-[3-[5-chloro-2-(difluoromethoxy)phenyl]-1-[2-(4-methylpiperazin-1-yl)-2-oxo-ethyl]pyrazol-4-yl]pyrazolo[1,5-a]pyrimidine-3-carboxamide]
9.31 | 9.62 | Nc1nn2cccnc2c1C(=O)Nc1cn(CC(=O)N2CCN(CCO)CC2)nc1-c1cc(Cl)ccc1OC(F)F [Example 244, 2-amino-N-[3-[5-chloro-2-(difluoromethoxy)phenyl]-1-[2-[4-(2-hydroxyethyl)piperazin-1-yl]-2-oxo-ethyl]pyrazol-4-yl]pyrazolo[1,5-a]pyrimidine-3-carboxamide]
9.26 | 9.52 | CCN1CCN(C(=O)Cn2cc(NC(=O)c3c(N)nn4cccnc34)c(-c3cc(Cl)ccc3OC(F)F)n2)CC1 [Example 247, 2-amino-N-[3-[5-chloro-2-(difluoromethoxy)phenyl]-1-[2-(4-ethylpiperazin-1-yl)-2-oxo-ethyl]pyrazol-4-yl]pyrazolo[1,5-a]pyrimidine-3-carboxamide]
9.21 | 9.41 | Nc1nn2cccnc2c1C(=O)Nc1cn(CC(=O)N2CCN(CC3CC3)CC2)nc1-c1cc(Cl)ccc1OC(F)F [Example 248, 2-amino-N-[3-[5-chloro-2-(difluoromethoxy)phenyl]-1-[2-[4-(cyclopropyl-methyl)piperazin-1-yl]-2-oxo-ethyl]pyrazol-4-yl]pyrazolo[1,5-a]pyrimidine-3-carboxamide]
9.31 | 9.64 | Nc1nn2cccnc2c1C(=O)Nc1cn(CC(=O)N2CCOC(CO)C2)nc1-c1cc(Cl)ccc1OC(F)F (stereo not shown) [Example 273, 2-amino-N-[3-[5-chloro-2-(difluoromethoxy)phenyl]-1-[2-[2-(hydroxy-methyl)morpholin-4-yl]-2-oxo-ethyl]pyrazol-4-yl]pyrazolo[1,5-a]pyrimidine-3-carboxamide]
9.29 | 9.08 | O=C(Nc1cn(CC(=O)N2CCOC(CO)C2)nc1-c1cc(Cl)ccc1OC(F)F)c1cnn2cccnc12 (stereo not shown) [Example 277, N-[3-[5-chloro-2-(difluoromethoxy)phenyl]-1-[2-[2-(hydroxy-methyl)morpholin-4-yl]-2-oxo-ethyl]pyrazol-4-yl]pyrazolo[1,5-a]pyrimidine-3-carboxamide]
9.77 | 9.92 | Nc1nn2cccnc2c1C(=O)Nc1cn(CC(=O)N2CCC(F)(F)C2)nc1-c1cc(Cl)ccc1OC(F)F [Example 282, 2-amino-N-[3-[5-chloro-2-(difluoromethoxy)phenyl]-1-[2-(3,3-difluoropyrrolidin-1-yl)-2-oxo-ethyl]pyrazol-4-yl]pyrazolo[1,5-a]pyrimidine-3-carboxamide]
9.62 | 9.96 | Nc1nn2cccnc2c1C(=O)Nc1cn(CC(=O)N2CCOCC2)nc1-c1cc(Cl)ccc1OC(F)F [Example 290, 2-amino-N-[3-[5-chloro-2-(difluoromethoxy)phenyl]-1-(2-morpholino-2-oxo-ethyl)pyrazol-4-yl]pyrazolo[1,5-a]pyrimidine-3-carboxamide]
